# Experimental data: patent publication US20090099195A1 (ASTRAZENECA AB, priority 2007, published 2009)
# Target: T1, hP2X3 (human Purinergic P2X receptors subtype 3), clone B (Homo sapiens, UniProt P56373)
# T1 sequence (P56373 1-397): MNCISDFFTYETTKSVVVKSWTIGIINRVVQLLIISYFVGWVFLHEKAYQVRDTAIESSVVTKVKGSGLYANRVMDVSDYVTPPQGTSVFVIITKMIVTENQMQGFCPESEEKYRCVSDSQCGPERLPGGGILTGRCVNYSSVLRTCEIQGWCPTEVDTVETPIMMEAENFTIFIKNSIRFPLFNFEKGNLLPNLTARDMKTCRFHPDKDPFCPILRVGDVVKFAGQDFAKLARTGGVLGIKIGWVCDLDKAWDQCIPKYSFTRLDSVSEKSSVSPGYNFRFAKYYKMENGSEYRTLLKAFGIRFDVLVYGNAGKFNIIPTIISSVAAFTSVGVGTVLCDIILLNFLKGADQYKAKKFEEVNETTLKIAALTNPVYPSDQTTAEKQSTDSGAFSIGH
# Assay: hP2X3 FLIPR calcium (Fluo-4) antagonist assay, clone B
# Conditions: Human P2X3 FLIPR Clone B IC50 (nM), RLE cells expressing hP2X3 clone B (NM_002559); agonist 500 nM α,β-methylene-ATP
row,SMILES,IC50 [nM]
1,"CC(=O)N1CCN(c2nc3c(c(N(Cc4ccccc4)CC4CCCO4)n2)CN(C(C)C)C3=O)CC1 (stereo not shown) [Example 3, 2-(4-acetylpiperazin-1-yl)-4-[benzyl(tetrahydrofuran-2-ylmethyl)amino]-6-isopropyl-5,6-dihydro-7H-pyrrolo[3,4-d]pyrimidin-7-one]",4600
2,"CC(=O)N1CCN(c2nc3c(c(N(Cc4ccc(F)cc4)C4CCCC4)n2)CN(C(C)C)C3=O)CC1 [Example 4, 2-(4-acetylpiperazin-1-yl)-4-[cyclopentyl(4-fluorobenzyl)amino]-6-isopropyl-5,6-dihydro-7H-pyrrolo[3,4-d]pyrimidin-7-one]",800
3,"CC(=O)N1CCN(c2nc(NC(C)c3ccc(C(C)(C)C)cc3)c3c(n2)C(=O)N(C(C)C)C3)CC1 (stereo not shown) [Example 5, 2-(4-acetylpiperazin-1-yl)-4-{[1-(4-tert-butylphenyl)ethyl]amino}-6-isopropyl-5,6-dihydro-7H-pyrrolo[3,4-d]pyrimidin-7-one]",440
4,"CC(=O)N1CCN(c2nc(NC(C)c3ccc(CC(C)C)cc3)c3c(n2)C(=O)N(C(C)C)C3)CC1 (stereo not shown) [Example 6, 2-(4-acetylpiperazin-1-yl)-4-{[1-(4-isobutylphenyl)ethyl]amino}-6-isopropyl-5,6-dihydro-7H-pyrrolo[3,4-d]pyrimidin-7-one]",160
5,"Cc1ccc(C(Nc2nc(NCCN(C)C)nc3c2CN(C(C)C)C3=O)c2ccccc2)cc1 (stereo not shown) [Example 7, 2-{[2-(dimethylamino)ethyl]amino}-6-isopropyl-4-{[(4-methylphenyl)(phenyl)methyl]amino}-5,6-dihydro-7H-pyrrolo[3,4-d]pyrimidin-7-one]",85
6,"CC(C)N1Cc2c(NC(c3ccccc3)c3ccc(Cl)cc3)nc(NCCN(C)C)nc2C1=O (stereo not shown) [Example 9, 4-{[(4-chlorophenyl)(phenyl)methyl]amino}-2-{[2-(dimethylamino)ethyl]amino}-6-isopropyl-5,6-dihydro-7H-pyrrolo[3,4-d]pyrimidin-7-one]",91
7,"CC(=O)N1CCN(c2nc(NC(c3ccc(C(C)C)cc3)C(C)C)c3c(n2)C(=O)N(C(C)C)C3)CC1 (stereo not shown) [Example 10, 2-(4-acetylpiperazin-1-yl)-6-isopropyl-4-{[1-(4-isopropylphenyl)-2-methylpropyl]amino}-5,6-dihydro-7H-pyrrolo[3,4-d]pyrimidin-7-one]",1200
8,"CC(=O)N1CCN(c2nc(NC(C)Cc3ccc(F)cc3)c3c(n2)C(=O)N(C(C)C)C3)CC1 (stereo not shown) [Example 12, 2-(4-acetylpiperazin-1-yl)-4-{[2-(4-fluorophenyl)-1-methylethyl]amino}-6-isopropyl-5,6-dihydro-7H-pyrrolo[3,4-d]pyrimidin-7-one]",3900
9,"CC(=O)N1CCN(c2nc(NC(C)c3nc(-c4ccccc4)no3)c3c(n2)C(=O)N(C(C)C)C3)CC1 (stereo not shown) [Example 13, 2-(4-acetylpiperazin-1-yl)-6-isopropyl-4-{[1-(3-phenyl-1,2,4-oxadiazol-5-yl)ethyl]amino}-5,6-dihydro-7H-pyrrolo[3,4-d]pyrimidin-7-one]",220
10,"CC(C)N1Cc2c(NC(c3ccc(F)cc3)c3ccc(F)cc3)nc(NCCN(C)C)nc2C1=O [Example 17, 4-{[bis(4-fluorophenyl)methyl]amino}-2-{[2-(dimethylamino)ethyl]amino}-6-isopropyl-5,6-dihydro-7H-pyrrolo[3,4-d]pyrimidin-7-one]",70
11,"CCN1CCN(c2nc(NC(c3ccccc3)c3ccc(Cl)cc3)c3c(n2)C(=O)N(C(C)C)C3)CC1 (stereo not shown) [Example 18, 4-{[(4-chlorophenyl)(phenyl)methyl]amino}-2-(4-ethylpiperazin-1-yl)-6-isopropyl-5,6-dihydro-7H-pyrrolo[3,4-d]pyrimidin-7-one]",180
12,"CC(C)N1Cc2c(NC(c3ccccc3)c3ccc(Cl)cc3)nc(N(C)CCN(C)C)nc2C1=O (stereo not shown) [Example 19, 4-{[(4-chlorophenyl)(phenyl)methyl]amino}-2-[[2-(dimethylamino)ethyl](methyl)amino]-6-isopropyl-5,6-dihydro-7H-pyrrolo[3,4-d]pyrimidin-7-one]",93
13,"CC(C)N1Cc2c(NC(c3ccccc3)c3ccc(Cl)cc3)nc(N3CC4CC3CN4C)nc2C1=O (stereo not shown) [Example 20, 4-{[(4-chlorophenyl)(phenyl)methyl]amino}-6-isopropyl-2-(5-methyl-2,5-diazabicyclo[2.2.1]hept-2-yl)-5,6-dihydro-7H-pyrrolo[3,4-d]pyrimidin-7-one]",100

# Next, values leading:
row,IC50 [nM],SMILES
1,140,"CC(C)N1Cc2c(NC3c4cccnc4CCc4c(F)cccc43)nc(NCCN(C)C)nc2C1=O (stereo not shown) [Example 21, 2-{[2-(dimethylamino)ethyl]amino}-4-[(9-fluoro-10,11-dihydro-5H-benzo[4,5]cyclohepta[1,2-b]pyridin-5-yl)amino]-6-isopropyl-5,6-dihydro-7H-pyrrolo[3,4-d]pyrimidin-7-one]"
2,270,"CC(C)N1Cc2c(NC3c4cc(F)ccc4CCc4ncccc43)nc(NCCN(C)C)nc2C1=O (stereo not shown) [Example 22, 2-{[2-(dimethylamino)ethyl]amino}-4-[(7-fluoro-10,11-dihydro-5H-benzo[4,5]cyclohepta[1,2-b]pyridin-5-yl)amino]-6-isopropyl-5,6-dihydro-7H-pyrrolo[3,4-d]pyrimidin-7-one]"
3,210,"CC(C)N1Cc2c(NC(c3ccc(F)cc3)c3ccc(F)cc3)nc(N3CC4CC3CN4C)nc2C1=O (stereo not shown) [Example 23, 4-{[bis(4-fluorophenyl)methyl]amino}-6-isopropyl-2-(5-methyl-2,5-diazabicyclo[2.2.1]hept-2-yl)-5,6-dihydro-7H-pyrrolo[3,4-d]pyrimidin-7-one]"
4,190,"CC(C)N1Cc2c(NC(c3ccc(F)cc3)c3ccc(F)cc3)nc(N(C)CCN(C)C)nc2C1=O [Example 24, 4-{[bis(4-fluorophenyl)methyl]amino}-2-[[2-(dimethylamino)ethyl](methyl)amino]-6-isopropyl-5,6-dihydro-7H-pyrrolo[3,4-d]pyrimidin-7-one]"
5,140,"CC(=O)N1CCN(c2nc(NC(c3ccc(Cl)cc3)C3CC3)c3c(n2)C(=O)N(C(C)C)C3)CC1 (stereo not shown) [Example 27, 2-(4-acetylpiperazin-1-yl)-4-{[(4-chlorophenyl)(cyclopropyl)methyl]amino}-6-isopropyl-5,6-dihydro-7H-pyrrolo[3,4-d]pyrimidin-7-one]"
6,200,"CC(=O)N1CCN(c2nc(NC(C)c3ccc(C(F)(F)F)cc3)c3c(n2)C(=O)N(C(C)C)C3)CC1 (stereo not shown) [Example 28, 2-(4-acetylpiperazin-1-yl)-6-isopropyl-4-({1-[4-(trifluoromethyl)phenyl]ethyl}amino)-5,6-dihydro-7H-pyrrolo[3,4-d]pyrimidin-7-one]"
7,160,"CCCc1ccc(C(C)Nc2nc(N3CCN(C(C)=O)CC3)nc3c2CN(C(C)C)C3=O)cc1 (stereo not shown) [Example 29, 2-(4-acetylpiperazin-1-yl)-6-isopropyl-4-{[1-(4-propylphenyl)ethyl]amino}-5,6-dihydro-7H-pyrrolo[3,4-d]pyrimidin-7-one]"
8,270,"CC(C)N1Cc2c(Nc3ccc(Cl)cc3)nc(N3CCN(C(=O)CC4NC(=O)NC4=O)CC3)nc2C1=O (stereo not shown) [Example 31, 5-[2-(4-{4-[(4-chlorophenyl)amino]-6-isopropyl-7-oxo-6,7-dihydro-5H-pyrrolo[3,4-d]pyrimidin-2-yl}piperazin-1-yl)-2-oxoethyl]imidazolidine-2,4-dione]"
9,430,"CCC(Nc1nc(N2CCN(C(C)=O)CC2)nc2c1CN(C(C)C)C2=O)c1ccc(C(F)(F)F)cc1 (stereo not shown) [Example 32, 2-(4-acetylpiperazin-1-yl)-6-isopropyl-4-({1-[4-(trifluoromethyl)phenyl]propyl}amino)-5,6-dihydro-7H-pyrrolo[3,4-d]pyrimidin-7-one]"
10,1200,"CC(=O)N1CCN(c2nc(NC(C(=O)O)c3ccc(C(F)(F)F)cc3)c3c(n2)C(=O)N(C(C)C)C3)CC1 (stereo not shown) [Example 35, {[2-(4-acetylpiperazin-1-yl)-6-isopropyl-7-oxo-6,7-dihydro-5H-pyrrolo[3,4-d]pyrimidin-4-yl]amino}[4-(trifluoromethyl)phenyl]acetic acid]"
11,1800,"CCC(Nc1nc(N2CCN(C(C)=O)CC2)nc2c1CN(C(C)C)C2=O)c1ccc(C)cc1 (stereo not shown) [Example 36, 2-(4-acetylpiperazin-1-yl)-6-isopropyl-4-{[1-(4-methylphenyl)propyl]amino}-5,6-dihydro-7H-pyrrolo[3,4-d]pyrimidin-7-one]"
12,> 30000,"CC(C)N1Cc2c(Nc3ccc(Cc4ccccc4)cc3)nc(N3CCOCC3)nc2C1=O [Example 37, 4-[(4-benzylphenyl)amino]-6-isopropyl-2-morpholin-4-yl-5,6-dihydro-7H-pyrrolo[3,4-d]pyrimidin-7-one]"
13,12000,"CC(=O)N1CCN(c2nc(NCc3ccc4c(c3)CCCN4C)c3c(n2)C(=O)N(C(C)C)C3)CC1 [Example 38, 2-(4-acetylpiperazin-1-yl)-6-isopropyl-4-{[(1-methyl-1,2,3,4-tetrahydroquinolin-6-yl)methyl]amino}-5,6-dihydro-7H-pyrrolo[3,4-d]pyrimidin-7-one]"
14,10000,"CCN(Nc1nc(N2CCN(C(C)=O)CC2)nc2c1CN(C(C)C)C2=O)c1ccc(C)cc1 [Example 39, 2-(4-acetylpiperazin-1-yl)-4-[2-ethyl-2-(4-methylphenyl)hydrazino]-6-isopropyl-5,6-dihydro-7H-pyrrolo[3,4-d]pyrimidin-7-one]"
15,310,"CC(=O)N1CCN(c2nc(NC(C)c3ccc(C(C)C)cc3)c3c(n2)C(=O)N(C(C)C)C3)CC1 (stereo not shown) [Example 40, 2-(4-acetylpiperazin-1-yl)-6-isopropyl-4-{[1-(4-isopropylphenyl)ethyl]amino}-5,6-dihydro-7H-pyrrolo[3,4-d]pyrimidin-7-one]"
